Reference: patent publication US8269026B2, “Lupane derivatives useful for treating HIV” (priority 2008, dated 2012)
Where two headings read alike, the source gives them in different places.

Test system: HIV-1 (HIVIIIB) replication in MT2 cell line
Assay: HIV-1 replication in MT2 cell line with and without 30% human serum (viral RT activity in supernatant)
Type: cell-based
Settings: average IC50 if tested more than once
Outline: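 MT2 cells infected with HIV-1 IIIB at MOI 0.5 for 3 h, washed, seeded at 0.5×10^6/ml in RPMI/10% FBS with serially diluted compound, with or without 30% human serum; medium and compound refreshed on day 3. RT activity in supernatant at day 5; IC50 and IC90 derived.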

[1] = Human immunodeficiency virus 1, MT2 cells, with 30% human serum, read-out: MT2 (HIVIIIB) with HS 30% IC50 range
[2] = Human immunodeficiency virus 1, MT2 cells, without human serum, read-out: MT2 (HIVIIIB) IC50 range

## CC(C)C1=C2C3CCC4[C@@]5(C)CC[C@H](OC(=O)CC(C)(C)C(=O)O)C(C)(C)C5CC[C@@]4(C)[C@]3(C)CC[C@@]2(NC(=O)C(C)N(C)C)CC1=O (mixture of isomers) [19-59, 3β-O-(3′,3′-Dimethylsuccinyl)-17β-((RS)-2-dimethylamino-propionamido)-21-oxolup-18-ene]
[1]
  IC50: < 199 nM

## CC(C)C1=C2C3CCC4[C@@]5(C)CC[C@H](OC(=O)CC(C)(C)C(=O)O)C(C)(C)C5CC[C@@]4(C)[C@]3(C)CC[C@@]2(NC(=O)NC(C)(C)C(F)(F)F)CC1=O (stereo partly drawn) [17-56, 3β-O-(3′,3′-Dimethylsuccinyl)-17β-[N′-(2,2,2-trifluoro-1,1-dimethyl-ethyl)ureido]-21-oxolup-18-ene]
[1]
  IC50: < 199 nM

## CC(C)C1=C2C3CCC4[C@@]5(C)CC[C@H](OC(=O)CC(C)(C)C(=O)O)C(C)(C)C5CC[C@@]4(C)[C@]3(C)CC[C@@]2(NC(=O)N2CCC(N)CC2)CC1=O (stereo partly drawn) [17-24, 3β-O-(3′,3′-Dimethylsuccinyl)-17β-[(4-amino-piperidine-1-carbonyl)-amino]-21-oxolup-18-ene]
[1]
  IC50: 200 to 999 nM

## Cc1cc(C(=O)N[C@@]23CC[C@]4(C)C(CCC5[C@@]6(C)CC[C@H](OC(=O)CC(C)(C)C(=O)O)C(C)(C)C6CC[C@]54C)C2=C(C(C)C)C(=O)C3)no1 (stereo partly drawn) [19-24, 3β-O-(3′,3′-Dimethylsuccinyl)-17β-(5-methylisoxazole-3-amido)-21-oxolup-18-ene]
[1]
  IC50: < 199 nM
[2]
  IC50: < 199 nM

## CC(C)C1=C2C3CCC4[C@@]5(C)CC[C@H](OC(=O)CC(C)(C)C(=O)O)C(C)(C)C5CC[C@@]4(C)[C@]3(C)CC[C@@]2(NC(=O)c2nnc(C3CC3)o2)CC1=O (stereo partly drawn) [19-62, 3β-O-(3′,3′-Dimethylsuccinyl)-17β-(5-cyclopropyl-[1,3,4]oxadiazole-2-amido)-21-oxolup-18-ene]
[1]
  IC50: < 199 nM

## CC(C)NC(=O)N[C@@]12CC[C@]3(C)C(CCC4[C@@]5(C)CC[C@H](OC(=O)CC(C)(C)C(=O)O)C(C)(C)C5CC[C@]43C)C1=C(C(C)C)C(=O)C2 (stereo partly drawn) [17-4, 3β-O-(3′,3′-Dimethylsuccinyl)-17β-[N′-(isopropyl)ureido]-21-oxolup-18-ene]
[1]
  IC50: < 199 nM
[2]
  IC50: < 199 nM

## CC(C)C1=C2C3CCC4[C@@]5(C)CC[C@H](OC(=O)CC(C)(C)C(=O)O)C(C)(C)C5CC[C@@]4(C)[C@]3(C)CC[C@@]2(NC(=O)NC(C)(C)C2CCCCC2)CC1=O (stereo partly drawn) [17-70, 3β-O-(3′,3′-Dimethylsuccinyl)-17β-[N′-(1-methyl-1-cyclohexyl-ethyl)-ureido]-21-oxolup-18-ene]
[1]
  IC50: > 1000 nM

## CC(C)C1=C2C3CCC4[C@@]5(C)CC[C@H](OC(=O)CC(C)(C)C(=O)O)C(C)(C)C5CC[C@@]4(C)[C@]3(C)CC[C@@]2(NC(=O)c2cscn2)CC1=O (stereo partly drawn) [19-27, 3β-O-(3′,3′-Dimethylsuccinyl)-17β-(1,3-thiazole-4-amido)-21-oxolup-18-ene]
[1]
  IC50: < 199 nM

## CC(C)C1=C2C3CCC4[C@@]5(C)CC[C@H](OC(=O)CC(C)(C)C(=O)O)C(C)(C)C5CC[C@@]4(C)[C@]3(C)CC[C@@]2(NC(=O)NCc2ccccn2)CC1=O (stereo partly drawn) [17-27, 3β-O-(3′,3′-Dimethylsuccinyl)-17β-[N′-(pyridin-2-ylmethyl)ureido]-21-oxolup-18-ene]
[1]
  IC50: < 199 nM

## CC(C)C1=C2[C@H]3CC[C@@H]4[C@@]5(C)CC[C@H](OC(=O)CC(C)(C)C(=O)O)C(C)(C)[C@@H]5CC[C@@]4(C)[C@]3(C)CC[C@@]2(NC(=O)c2cn(C)cn2)CC1=O [19-19, 3β-O-(3′,3′-Dimethylsuccinyl)-17β-(1-methyl-1H-imidazole-4-amido)-21-oxolup-18-ene]
[1]
  IC50: < 199 nM

## CC(C)OC(=O)N[C@@]12CC[C@]3(C)[C@H](CC[C@@H]4[C@@]5(C)CC[C@H](OC(=O)CC(C)(C)C(=O)O)C(C)(C)[C@@H]5CC[C@]43C)C1=C(C(C)C)C(=O)C2 [20-2]
[1]
  IC50: < 199 nM
[2]
  IC50: < 199 nM

## CC(C)C1=C2C3CCC4[C@@]5(C)CC[C@H](OC(=O)CC(C)(C)C(=O)O)C(C)(C)C5CC[C@@]4(C)[C@]3(C)CC[C@@]2(NC(=O)NCc2cncnc2)CC1=O (stereo partly drawn) [17-68, 3β-O-(3′,3′-Dimethylsuccinyl)-17β-[N′-(pyrimidin-5-ylmethyl)ureido]-21-oxolup-18-ene]
[1]
  IC50: < 199 nM

## CC(C)C1=C2[C@H]3CC[C@@H]4[C@@]5(C)CC[C@H](OC(=O)CC(C)(C)C(=O)O)C(C)(C)[C@@H]5CC[C@@]4(C)[C@]3(C)CC[C@@]2(NC(=O)CCN2CCCCC2)CC1=O [19-40, 3β-O-(3′,3′-Dimethylsuccinyl)-17β-(3-piperidin-1-yl-propionamido)-21-oxolup-18-ene]
[1]
  IC50: < 199 nM

## CC(C)C1=C2C3CCC4[C@@]5(C)CC[C@H](OC(=O)CC(C)(C)C(=O)O)C(C)(C)C5CC[C@@]4(C)[C@]3(C)CC[C@@]2(NC(=O)N[C@H](C)C2CCCCC2)CC1=O (stereo partly drawn) [17-55, 3β-O-(3′,3′-Dimethylsuccinyl)-17β-[N′-((R)-1-cyclohexyl-ethyl)ureido]-21-oxolup-18-ene]
[1]
  IC50: < 199 nM

## CC(C)C1=C2C3CCC4[C@@]5(C)CC[C@H](OC(=O)CC(C)(C)C(=O)O)C(C)(C)C5CC[C@@]4(C)[C@]3(C)CC[C@@]2(NC(=O)c2cn[nH]c2)CC1=O (stereo partly drawn) [19-82, 3β-O-(3′,3′-Dimethylsuccinyl)-17β-(1H-pyrazole-4-amido)-21-oxolup-18-ene]
[1]
  IC50: < 199 nM

## CC(C)C1=C2[C@H]3CC[C@@H]4[C@@]5(C)CC[C@H](OC(=O)CC(C)(C)C(=O)O)C(C)(C)[C@@H]5CC[C@@]4(C)[C@]3(C)CC[C@@]2(NC(=O)N2CCNCC2)CC1=O [17-15, 3β-O-(3′,3′-Dimethylsuccinyl)-17β-[(piperazine-1-carbonyl)-amino]-21-oxolup-18-ene]
[1]
  IC50: < 199 nM
[2]
  IC50: < 199 nM

## CC(C)C1=C2C3CCC4[C@@]5(C)CC[C@H](OC(=O)CC(C)(C)C(=O)O)C(C)(C)C5CC[C@@]4(C)[C@]3(C)CC[C@@]2(NC(=O)OC2CCN(C(=O)OC(C)(C)C)CC2)CC1=O (stereo partly drawn) [20-6, 3β-O-(3′,3′-Dimethylsuccinyl)-17β-[(1-carboxylic acid tert-butyl ester)-piperidine-4-oxycarbonylamino]-21-oxolup-18-ene]
[1]
  IC50: < 199 nM
[2]
  IC50: < 199 nM

## CC(C)C1=C2[C@H]3CC[C@@H]4[C@@]5(C)CC[C@H](OC(=O)CC(C)(C)C(=O)O)C(C)(C)[C@@H]5CC[C@@]4(C)[C@]3(C)CC[C@@]2(NC(=O)CCCN2CCCC2)CC1=O [19-39, 3β-O-(3′,3′-Dimethylsuccinyl)-17β-(4-pyrrolidin-1-yl-butyramido)-21-oxolup-18-ene]
[1]
  IC50: < 199 nM

## CC(C)C1=C2C3CCC4[C@@]5(C)CC[C@H](OC(=O)CC(C)(C)C(=O)O)C(C)(C)C5CC[C@@]4(C)[C@]3(C)CC[C@@]2(NC(=O)OCC2CCCCC2)CC1=O (stereo partly drawn) [20-7, 3β-O-(3′,3′-Dimethylsuccinyl)-17β-cyclohexylmethoxycarbonylamino-21-oxolup-18-ene]
[1]
  IC50: < 199 nM
[2]
  IC50: < 199 nM

## Cc1ccccc1C(=O)N[C@@]12CC[C@]3(C)[C@H](CC[C@@H]4[C@@]5(C)CC[C@H](OC(=O)CC(C)(C)C(=O)O)C(C)(C)[C@@H]5CC[C@]43C)C1=C(C(C)C)C(=O)C2 [19-45, 3β-O-(3′,3′-Dimethylsuccinyl)-17β-(2-methylbenzamido)-21-oxolup-18-ene]
[1]
  IC50: < 199 nM

## CC(C)C1=C2C3CCC4[C@@]5(C)CC[C@H](OC(=O)CC(C)(C)C(=O)O)C(C)(C)C5CC[C@@]4(C)[C@]3(C)CC[C@@]2(NC(=O)N2CCC(NC(=O)OC(C)(C)C)CC2)CC1=O (stereo partly drawn) [17-20, 3β-O-(3′,3′-Dimethylsuccinyl)-17β-[(4-tert-butoxycarbonylamino-piperidine-1-carbonyl)-amino]-21-oxolup-18-ene]
[1]
  IC50: < 199 nM

## CC(C)C1=C2C3CCC4[C@@]5(C)CC[C@H](OC(=O)CC(C)(C)C(=O)O)C(C)(C)C5CC[C@@]4(C)[C@]3(C)CC[C@@]2(NC(=O)C2CC3CCC(C2)O3)CC1=O (stereo partly drawn) [19-71, 3β-O-(3′,3′-Dimethylsuccinyl)-17β-(8α-oxa-bicyclo[3.2.1]octane-3-amido)-21-oxolup-18-ene]
MT2 cells, with 30% human serum, read-out: MT2 (HIVIIIB) with HS 30% IC50 range
  IC50: < 199 nM

## Cc1ncccc1C(=O)N[C@@]12CC[C@]3(C)[C@H](CC[C@@H]4[C@@]5(C)CC[C@H](OC(=O)CC(C)(C)C(=O)O)C(C)(C)[C@@H]5CC[C@]43C)C1=C(C(C)C)C(=O)C2 [19-46, 3β-O-(3′,3′-Dimethylsuccinyl)-17β-(2-methylpyridin-3-yl)amido-21-oxolup-18-ene]
[1]
  IC50: < 199 nM

## CC(C)C1=C2C3CCC4[C@@]5(C)CC[C@H](OC(=O)CC(C)(C)C(=O)O)C(C)(C)C5CC[C@@]4(C)[C@]3(C)CC[C@@]2(NC(=O)OC2CCC2)CC1=O (stereo partly drawn) [20-9, 3β-O-(3′,3′-Dimethylsuccinyl)-17β-cyclobutyloxycarbonylamino-21-oxolup-18-ene]
[1]
  IC50: < 199 nM

## CC(C)C1=C2C3CCC4[C@@]5(C)CC[C@H](OC(=O)CC(C)(C)C(=O)O)C(C)(C)C5CC[C@@]4(C)[C@]3(C)CC[C@@]2(NC(=O)OC2CCN(C)CC2)CC1=O (stereo partly drawn) [20-17, 3β-O-(3′,3′-Dimethylsuccinyl)-17β-(1-methylpiperidine-4-oxycarbonylamino)-21-oxolup-18-ene]
[1]
  IC50: < 199 nM

## Cc1nc(C(=O)N[C@@]23CC[C@]4(C)C(CCC5[C@@]6(C)CC[C@H](OC(=O)CC(C)(C)C(=O)O)C(C)(C)C6CC[C@]54C)C2=C(C(C)C)C(=O)C3)no1 (stereo partly drawn) [19-68, 3β-O-(3′,3′-Dimethylsuccinyl)-17β-(5-methyl-[1,2,4]oxadiazole-3-amido)-21-oxolup-18-ene]
[1]
  IC50: < 199 nM

## CC(=O)N1CCC(C(=O)N[C@@]23CC[C@]4(C)[C@H](CC[C@@H]5[C@@]6(C)CC[C@H](OC(=O)CC(C)(C)C(=O)O)C(C)(C)[C@@H]6CC[C@]54C)C2=C(C(C)C)C(=O)C3)CC1 [19-7, 3β-O-(3′,3′-Dimethylsuccinyl)-17β-(1-acetylpiperidine-4-amido)-21-oxolup-18-ene]
[1]
  IC50: < 199 nM
[2]
  IC50: < 199 nM
